{
  "source": "patent US20260248756A1",
  "about": "“FAT COMPOSITION COMPRISING TRIBUTYRIN AND TRICAPROIN AND ITS USE IN MILK REPLACERS” (Nutreco IP Assets B.V., priority 2023, published 2026)",
  "origin": "cited, not measured here",
  "data": [
    {"compound": "CCCC(=O)OCC(COC(=O)CCC)OC(=O)CCC", "note": "[tributyrin]", "values": [
      {"measurement": "total intake of solid feed", "setting": "postweaning, tributyrin up to 0.6 wt % of dry matter in CMR", "value": "increased total intake of solid feed"},
      {"measurement": "body weight compared with calves not fed tributyrin", "setting": "weaning and postweaning period, 0.6 wt % of dry matter tributyrin in milk replacer", "value": "greater body weight"}
    ]}
  ]
}
